Reference: PubChem BioAssay (NCI)
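Assay format: 96-well plates, 48-hour exposure. TGI is the concentration that stops growth completely.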

How the values were obtained:
Assay in all cases: NCI-60 cell line screen, 48 h
HOP-92 NSCLC = tested on: HOP-92 NSCLC
HCT-116 colon = tested on: HCT-116 colon
UACC-62 melanoma = tested on: UACC-62 melanoma
CAKI-1 renal = tested on: CAKI-1 renal
U251 CNS = tested on: U251 CNS
OVCAR-4 ovarian = tested on: OVCAR-4 ovarian
OVCAR-5 ovarian = tested on: OVCAR-5 ovarian
NCI-H522 lung = tested on: NCI-H522 lung
LOX IMVI melanoma = tested on: LOX IMVI melanoma
RPMI-8226 leukemia = tested on: RPMI-8226 leukemia

Compound	TGI (HOP-92 NSCLC) [µM]	TGI (HCT-116 colon) [µM]	TGI (UACC-62 melanoma) [µM]	TGI (CAKI-1 renal) [µM]	TGI (U251 CNS) [µM]	TGI (OVCAR-4 ovarian) [µM]	TGI (OVCAR-5 ovarian) [µM]	TGI (NCI-H522 lung) [µM]	TGI (LOX IMVI melanoma) [µM]	TGI (RPMI-8226 leukemia) [µM]
COc1cccc(/C=C2/Sc3scc(-c4ccccc4)[n+]3C2=O)c1O	51.2	29.2	30.5	47.7	43.3	74.4	> 100	52.8	36.4	
NNC(=O)c1ccc(-n2nnc(C(=O)NN)c2C(=O)NN)cc1	> 100	> 100		> 100	> 100	> 100	> 100		> 100	> 100
COC(=O)C1CC2(CCC1=O)Cc1ccccc1C2=O (configuration not stated)		> 100	> 100	> 100	> 100	> 100	> 100	> 100	> 100	> 100
CN(C)CCNC(=O)c1cccc2c(NCC(=O)O)c3ccccc3nc12	> 100	67.4	48.1		> 100	30.9	> 100	35.3	> 100	> 100
COc1cc2c(c(OC)c1OC)C(=O)[C@H](O)[C@H]2NC(N)=O		> 100	48.5	> 100	> 100		> 100	> 100	> 100	> 100
COc1cc(OC)c(/C=C2\N=C(C)N(Nc3nnc(NN4C(=O)/C(=C/c5c(OC)cc(OC)cc5OC)N=C4C)c4ccccc34)C2=O)c(OC)c1	> 100	> 100	> 100		> 100	> 100	> 100	> 100	> 100	> 100
